Test results as given in patent US12698265B2, “Plant extracts enriched with ipolamiide derivatives as immunosuppressants for treating immunological disorders” (priority 2017, dated 2026).

How the values were obtained:
[1] = tested on: IFNγ; assay: IFNγ production by αCD3/CD28-activated CD8+ T cells (Human IFNγ ELISA); type: cell-based; conditions: 3, 10 and 30 μM; human CD8+ T cells activated with αCD3/CD28; FIG. 2B
Protocol: (§1) FIG. 2—Effect of the aqueous extract of Stachytarpheta cayennensis (3, 10 and 30 μM, concentration expressed in ipolamiide) and isolated ipolamiide (3, 10 and 30 μM) on the proliferation of CD8+ T cells activated by αCD3/CD28 (A) and IFNγ production (B). The effect of the pool of compounds (IV to VIII) and the five novel isolated compounds (IV to VIII) generated after the acid hydrolysis of ipolamiide (30 μM) was also evaluated in the same experiments, proliferation of CD8+ T cells activated by αCD3/CD28 (C) and IFNγ production (D). Tacrolimus (0.5 μM) was used as the positive control for all experiments. The data are the mean±SD of three replicates.
(§2) The extract of Stachytarpheta cayennensis, ipolamiide and derivatives were studied in an experimental in vitro immunological model involving CD8+ T cells and IFNγ. […]
(§3) Peripheral blood mononuclear cells (PBMCs) from healthy volunteers were isolated from leukocyte layers by Ficoll-Hystopaque centrifugation. […] Specifically, it was evaluated the incorporation of BrdU through the Biotrak ELISA System (GE Healthcare, RPN250) per the manufacturer's instructions. The methodology for quantification of interferon gamma comprised the use of the Human IFNγ ELISA Ready-SET-Go kit (eBiosciences 88-7316-88) and followed the manufacturer's instructions. […]

[2] = tested on: CD8+ T cells activated by αCD3/CD28; assay: Proliferation of CD8+ T cells activated by αCD3/CD28 (BrdU incorporation, Biotrak ELISA); type: cell-based; conditions: 3, 10 and 30 μM (extract concentration expressed in ipolamiide); human CD8+ T cells from PBMCs; FIG. 2A
Protocol: as §1, §2, §3

In the case of COC(=O)C1=CO[C@@H](O[C@@H]2O[C@H](CO)[C@@H](O)[C@H](O)[C@H]2O)[C@@H]2[C@@](C)(O)CC[C@]12O [ipolamiide], the “secretion of IFNγ” value [1] is reported as “had no effect” and the “activation / proliferation of CD8+ T cells induced by αCD3/CD28” value [2] is reported as “had no effect”.
